# In paper PMC4490744, “Protective effect of a Protein Epitope Mimetic CCR10 antagonist, POL7085, in a model of allergic eosinophilic airway inflammation” (Respiratory Research, 2015):
# Assays:
# [1] = tested on: OVA-sensitized and challenged Balb/c mice; assay: Colorimetric assay of lung collagen, OVA model; conditions: lung homogenate, POL7085 p < 0.05, DEX 1 mg/kg p < 0.001
# [2] = tested on: OVA-sensitized and challenged Balb/c mice; assay: Colorimetric assay of lung mucus, OVA model; format: in vivo, mouse
# Description: Mucus was measured in lung homogenate by a mucus colorimetric assay: 100 μL samples were mixed with 20 μL acid mucus reagent (0.2 % periodic acid) incubated for 1 h at 37 °C, then 20 μL mucus dye reagent (pararosaniline 1 %, 10 N hydrochloric acid 1 %) was added and samples were incubated for a further 30 min at 37 °C, before optical density measurement at 555 nm.
# [3] = tested on: OVA-sensitized and challenged Balb/c mice; assay: Lung histology (haematoxylin-eosin), OVA model; format: in vivo, mouse; conditions: POL7085 15 mg/kg or DEX 1 mg/kg i.n.
# Description: Lung tissues were fixed in 4 % paraformaldehyde and paraffin-embedded. 6 μm sections were cut, mounted on Superfrost glass slides (Fischer Scientific) and stained with haematoxylin-eosin for light microscopy morphological analysis or periodic acid-Schiff (PAS) staining to determine the extent of mucus production. The area of epithelial cells containing the mucus were measured and expressed relative to the total bronchus perimeter.
# [4] = tested on: OVA-sensitized and challenged Balb/c mice; assay: Airway responsiveness to methacholine, whole body barometric plethysmography; format: in vivo, mouse; conditions: DEX 1 mg/kg i.n., p < 0.001
# Description: Airway responsiveness to aerosolized methacholine (MCh; Sigma-Aldrich, A2251) was measured in conscious mice on day 22 (24 h after the last OVA challenge) by whole body barometric plethysmography (Emka Technologies). Mice were acclimatized in the plethysmograph chamber for 30 min until a stable baseline was obtained, and then exposed to aerosolized saline for 30 s as a control. Mice were then challenged every 20 min with aerosolized MCh at increasing concentrations (0.05, 0.1, 0.2 and 0.3 M) for 30 s, and the enhanced pause (PenH) was recorded for 5 min and used as an index of airway obstruction.
# [5] = tested on: OVA-sensitized and challenged Balb/c mice; assay: BAL cytokines by ELISA, OVA model; format: in vivo, mouse; conditions: 24 h after last challenge
# Description: Bronchoalveolar lavage (BAL) was performed 24 h after the last OVA challenge as previously described. Mice were anaesthetized i.p. (ketamine 150 mg/kg, xylazine 10 mg/kg). A plastic cannula was inserted in the exposed trachea, and airways were washed with 0.5 mL of 0.9 % NaCl (saline) injected with a 1 mL syringe. This procedure was performed ten times. The initial concentrated supernatant of the two first lavages (2 × 0.5 mL administered, approx. 0.5 mL recovered) was collected for cytokine measurements. The remainder of the BALF was centrifuged (600 g for 5 min, 4 °C), and cell pellets pooled. After lysis of erythrocytes with distilled water followed by osmotic re-equilibration and centrifugation, the cell pellet was suspended in 500 μL of saline and total cell counted on a haemocytometer chamber (Neubauer, PRECISS®). […]
# (§1) IL-5, IFN-γ (BD Pharmingen), CCL28 (R&D system) ELISA kits and Th17 Milliplex® (Millipore) were used according to the manufacturer’s instructions. For BALF recovered 24 h after the last OVA challenge, IL-5 and IFN-γ were quantified by ELISA. For lung homogenate, concentrations of IL-4, IL-5, IL-13, IL-17a and IL-17f were quantified by Milliplex® in the supernatants obtained after lung tissue was homogenised with an UltraTurax® and centrifuged at 10,000 g for 10 min at 4 °C.
# [6] = tested on: OVA-sensitized and challenged Balb/c mice; assay: Lung CCR3 mRNA by RT-qPCR, OVA model; format: in vivo, mouse; conditions: 2^ΔΔCt, not significant
# Description: All procedures were performed according to the manufacturer’s instructions. Lung tissue was homogenised in a Fastprep®, and total RNA extracted with Tri-Reagent® (1 mL/left lung; Euromedex) and purified with mini RNeasy® Kit (Qiagen). RNA pellets were suspended in nuclease-free water (DEPC). RNA concentration and quality were determined in each preparation with a Nanodrop® spectrophotometer.
# Reverse transcription was performed on 10 μg/mL of total RNA by the High Capacity cDNA Archive kit® (Life Technologies™) for 10 min at 25 °C and 2 h at 37 °C, and cDNAs were stored at −80 °C until use. Quantitative PCR was performed by real-time fluorescent PCR with TaqMan® Gene Expression Assay in 96 well plate format (Life Technologies™, ABI7000) using TaqMan® Gene Expression Assay primers (Life Technologies™ for HPRT1 (Mm01545399_m1), CCR10 (Mm01292449_m1), CCL28 (Mm00445039_m1) and CCR3 (Mm00515543_s1). To analyse the low expression of CCR10, CCL28 and CCR3, a preamplification was performed with TaqMan® PreAmp Master Mix (Life Technologies™) and TaqMan® Gene Expression Assay (10 min at 95 °C followed by 14 cycles: 15 s at 95 °C and 4 min at 60 °C). Preamplified cDNAs were stored at −80 °C until use and diluted 1/20 with 1X TE buffer for use. […]
# [7] = tested on: OVA-sensitized and challenged Balb/c mice; assay: Plasma OVA-specific IgE by ELISA, OVA model; format: in vivo, mouse; conditions: D22, ELISA
# Description: Plasma IgE levels were determined by ELISA. Microtiter plates were coated overnight at 4 °C with the capture antibody, anti-mouse IgE at 2 μg/well in carbonate buffer, pH 9.5 (BD Pharmingen, clone R35-118).
# [8] = tested on: OVA-sensitized and challenged Balb/c mice; assay: Lung homogenate cytokines by Milliplex, OVA model; format: in vivo, mouse; conditions: POL7085 7.5 and 15 mg/kg or DEX 1 mg/kg i.n.
# Description: as §1
# [9] = tested on: OVA-sensitized and challenged Balb/c mice; assay: BAL total and differential cell counts, OVA model; format: in vivo, mouse; conditions: 24 h after last challenge, POL7085 15 mg/kg or DEX 1 mg/kg i.n. once daily 1 h before challenge, p < 0.001
# Description: Bronchoalveolar lavage (BAL) was performed 24 h after the last OVA challenge as previously described. Mice were anaesthetized i.p. (ketamine 150 mg/kg, xylazine 10 mg/kg). A plastic cannula was inserted in the exposed trachea, and airways were washed with 0.5 mL of 0.9 % NaCl (saline) injected with a 1 mL syringe. This procedure was performed ten times. The initial concentrated supernatant of the two first lavages (2 × 0.5 mL administered, approx. 0.5 mL recovered) was collected for cytokine measurements. The remainder of the BALF was centrifuged (600 g for 5 min, 4 °C), and cell pellets pooled. After lysis of erythrocytes with distilled water followed by osmotic re-equilibration and centrifugation, the cell pellet was suspended in 500 μL of saline and total cell counted on a haemocytometer chamber (Neubauer, PRECISS®). Cells were cytocentrifuged at 700 rpm for 10 min (Cytospin 4, Thermo Fischer Scientific), and stained with Diff-Quick® (Merck) for differential cell counts performed on at least 400 cells.
# [10] = tested on: OVA-sensitized and challenged Balb/c mice; assay: Lung tissue CCL28 by ELISA, OVA model; format: in vivo, mouse; conditions: POL7085 p < 0.05
# Description: as §1
# [11] = tested on: OVA-sensitized and challenged Balb/c mice; assay: Immunohistochemistry of CCR10 in the lung, OVA model; format: in vivo, mouse; conditions: CCR10 immunolabelling
# Description: Sections (3 μm) of lung tissue were cut, mounted, placed in Sequenza® immunostaining with Coverplate™ (Thermo Scientific Shandon), and antigen retrieval was performed with proteinase K in Tris-EDTA buffer (pH 8; Fluka) for 35 min at 37 °C. The endogenous enzyme was blocked with Dual Endogenous Enzyme Block (Dako Cytomation) and slides were incubated overnight at 4 °C with the primary antibody 1/1000 (goat anti-mouse CCR10 antibody; Capralogics), followed by 30 min at RT with the secondary rabbit anti-goat antibody (Vector) and 30 min at RT with extravidin peroxidase (Sigma-Aldrich).
structure (smiles),measurement,setting,value
"C[C@@H]1C[C@H]2[C@@H]3CCC4=CC(=O)C=C[C@]4(C)[C@@]3(F)[C@@H](O)C[C@]2(C)[C@@]1(O)C(=O)CO [DEX, dexamethasone]",reduction of lung collagen levels,[1],64%
same,"effect on lung mucus (colorimetric assay, lung homogenate)",[2],trend towards reduction of mucus levels (ns)
same,effect on peribronchial and perivascular inflammatory cell infiltrates in lung,[3],substantial reduction of these cellular infiltrates
same,effect on airway responses to MCh,[4],significantly decreased airway responses to MCh
same,effect on IL-5 level in BAL,[5],significantly decreased
same,reduction of OVA-induced lung CCR3 mRNA expression,[6],45%
same,effect on plasma OVA-specific IgE levels,[7],"a slight decrease, although non significant"
same,"effect on levels of IL-4, IL-5 and IL-13 in lung homogenate",[8],significantly decreased
same,inhibition of BAL eosinophil recruitment,[9],87%
same,inhibition of BAL lymphocyte recruitment,[9],86%
same,inhibition of BAL neutrophil recruitment,[9],90%
same,effect on lung CCL28 concentration,[10],had no effect on CCL28 levels
same,infiltrating inflammatory cells expressing CCR10,[11],clearly reduced
